Source: patent US20260078120A1, “SUBSTITUTED PYRIDOPYRIMIDINONES” (MIRATI THERAPEUTICS, INC., priority 2022, published 2026)

Columns and labels:
[1] = test system: T47D (PI3Kα H1047R mutant) cells; assay: CellTiter-Glo 2.0 luminescent cell viability assay, 72 hours, T47D cells; format: cell-based; conditions: Homo sapiens, T47D, 72 h, T47D (PI3Kα H1047R mutant) cells, CellTiter-Glo, approximately 72 hours; read-out: T47D (H1047R mutant) Viability IC50
Outline: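 Cells seeded at 1000 per well overnight were dosed with a 10-concentration, 1:4 series starting at 10 µM and incubated ~72 h at 37° C. Viability was read by CellTiter-Glo 2.0 luminescence after 30 min at room temperature. IC50 came from four-parameter fits of percent vehicle control.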

[2] = test system: SKBR3 (PI3Kα wild type) cells; assay: CellTiter-Glo 2.0 luminescent cell viability assay, 72 hours, SKBR3 cells; format: cell-based; conditions: Homo sapiens, SK-BR-3, 72 h, SKBR3 (PI3Kα wild type) cells, CellTiter-Glo, approximately 72 hours; read-out: SKBR3 (WT) Viability IC50
Outline: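 Viability measured via CTG luminescence following roughly 72 hours of compound exposure at 37° C. Dosing used a 10 um starting concentration diluted 1:4 over 10 points; percent-of-vehicle data fitted with a variable-slope four-parameter model for IC50.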

IC50 [1]	IC50 [2]	Compound
0.17 µM	> 10 µM	CO[C@@H]1CN(c2nc3c([C@@H](C)Nc4ccccc4C(=O)O)cc(C)cn3c(=O)c2C)CCC1(F)F [Example 11-58, 2-(((R)-1-(2-((R)-4,4-difluoro-3-methoxypiperidin-1-yl)-3,7-dimethyl-4-oxo-4H-pyrido[1,2-a]pyrimidin-9-yl)ethyl)amino)benzoic acid]
0.268 µM	> 10 µM	Cc1cc([C@@H](C)Nc2ccccc2C(=O)O)c2nc(N3CCC(F)(F)C[C@H]3C)c(C)c(=O)n2c1 [Example 11-93, 2-(((R)-1-(2-((R)-4,4-difluoro-2-methylpiperidin-1-yl)-3,7-dimethyl-4-oxo-4H-pyrido[1,2-a]pyrimidin-9-yl)ethyl)amino)benzoic acid]
0.255 µM	> 10 µM	Cc1cc([C@@H](C)Nc2ccccc2C(=O)O)c2nc(N3CC(C(F)F)C3)c(C)c(=O)n2c1 [Example 11-105, (R)-2-((1-(2-(3-(difluoromethyl)azetidin-1-yl)-3,7-dimethyl-4-oxo-4H-pyrido[1,2-a]pyrimidin-9-yl)ethyl)amino)benzoic acid]
0.144 µM	> 10 µM	Cc1cc([C@@H](C)Nc2ccccc2C(=O)O)c2nc(N3CCN(c4cccc(C#N)c4)CC3)c(C#N)c(=O)n2c1 [Example 11-225, (R)-2-((1-(3-cyano-2-(4-(3-cyanophenyl)piperazin-1-yl)-7-methyl-4-oxo-4H-pyrido[1,2-a]pyrimidin-9-yl)ethyl)amino)benzoic acid]
5.42 µM	> 10 µM	Cc1cc(C(C)Nc2cc(F)ccc2C(=O)O)c2nc(N3Cc4ccccc4C3)c(C)c(=O)n2c1 (stereo not drawn) [Example 11-364, 4-fluoro-2-((1-(2-(isoindolin-2-yl)-3,7-dimethyl-4-oxo-4H-pyrido[1,2-a]pyrimidin-9-yl)ethyl)amino)benzoic acid]
3.14 µM	> 10 µM	Cc1cc([C@@H](C)Nc2ccccc2C(=O)O)c2nc(N3CCn4ccnc4C3)c(C)c(=O)n2c1 [Example 11-429, (R)-2-((1-(2-(5,6-dihydroimidazo[1,2-a]pyrazin-7(8H)-yl)-3,7-dimethyl-4-oxo-4H-pyrido[1,2-a]pyrimidin-9-yl)ethyl)amino)benzoic acid]
0.368 µM	> 10 µM	Cc1cc([C@@H](C)Nc2ccccc2C(=O)O)c2nc(N3CCN(c4ccccc4C#N)CC3)c(C#N)c(=O)n2c1 [Example 11-260, (R)-2-((1-(3-cyano-2-(4-(2-cyanophenyl)piperazin-1-yl)-7-methyl-4-oxo-4H-pyrido[1,2-a]pyrimidin-9-yl)ethyl)amino)benzoic acid]
9.25 µM	9.32 µM	Cc1cc(C(C)Nc2ccccc2)c2nc(N3CCCCC3)c(C#N)c(=O)n2c1 (stereo not drawn) [Example 11-299, 7-methyl-4-oxo-9-(1-(phenylamino)ethyl)-2-(piperidin-1-yl)-4H-pyrido[1,2-a]pyrimidine-3-carbonitrile]
0.274 µM	> 10 µM	Cc1cc([C@@H](C)Nc2ccccc2C(=O)O)c2nc(N3CCOCC3)c(C#N)c(=O)n2c1 [Example 11-318, (R)-2-((1-(3-cyano-7-methyl-2-morpholino-4-oxo-4H-pyrido[1,2-a]pyrimidin-9-yl)ethyl)amino)benzoic acid]
> 10 µM	> 10 µM	Cc1cc(C(=O)N2CCCC2C(=O)O)c2nc(N3CCCCC3)cc(=O)n2c1 (stereo not drawn) [Example 11-345, (7-methyl-4-oxo-2-(piperidin-1-yl)-4H-pyrido[1,2-a]pyrimidin-9-carbonyl)proline]
0.277 µM	8.79 µM	Cc1cc(C(C)Nc2ccc(Cl)nc2C(=O)O)c2nc(N3Cc4ccccc4C3)c(C)c(=O)n2c1 (stereo not drawn) [Example 11-361]
4.47 µM	> 10 µM	Cc1cc(C(C)Nc2ccccc2C(=O)O)c2nc(N3CCCC(C)(O)C3)cc(=O)n2c1 (stereo not drawn) [Example 11-342, 2-((1-(2-(3-hydroxy-3-methylpiperidin-1-yl)-7-methyl-4-oxo-4H-pyrido[1,2-a]pyrimidin-9-yl)ethyl)amino)benzoic acid]
0.139 µM	> 10 µM	Cc1cc([C@@H](C)Nc2ccccc2C(=O)O)c2nc(N3CCC(N4CCC(F)(F)CC4)CC3)c(C)c(=O)n2c1 [Example 11-23, (R)-2-((1-(2-(4,4-difluoro-[1,4′-bipiperidin]-1′-yl)-3,7-dimethyl-4-oxo-4H-pyrido[1,2-a]pyrimidin-9-yl)ethyl)amino)benzoic acid]
0.703 µM	> 10 µM	Cc1cc([C@@H](C)Nc2ccc(C(F)(F)F)nc2C(=O)O)c2nc(N3Cc4ccccc4C3)c(C)c(=O)n2c1 [Example 11-354, (R)-3-((1-(2-(isoindolin-2-yl)-3,7-dimethyl-4-oxo-4H-pyrido[1,2-a]pyrimidin-9-yl)ethyl)amino)-6-(trifluoromethyl)picolinic acid]
0.241 µM	> 10 µM	C[C@@H](Nc1ccccc1C(=O)O)c1cc(C(F)F)cn2c(=O)c(C#N)c(N3CCC(F)(F)CC3)nc12 [Example 11-168, (R)-2-((1-(3-cyano-7-(difluoromethyl)-2-(4,4-difluoropiperidin-1-yl)-4-oxo-4H-pyrido[1,2-a]pyrimidin-9-yl)ethyl)amino)benzoic acid]
0.356 µM	> 10 µM	Cc1cc([C@@H](C)Nc2ccccc2C(=O)O)c2nc(N(C)CC3CC3)c(C)c(=O)n2c1 [Example 11-203, (R)-2-((1-(2-((cyclopropylmethyl)(methyl)amino)-3,7-dimethyl-4-oxo-4H-pyrido[1,2-a]pyrimidin-9-yl)ethyl)amino)benzoic acid]
3.37 µM	> 10 µM	Cc1cc(C(C)Nc2ccccc2C(=O)O)c2nc(-c3ccc(C#N)cc3)cc(=O)n2c1 (stereo not drawn) [Example 11-397, 2-((1-(2-(4-cyanophenyl)-7-methyl-4-oxo-4H-pyrido[1,2-a]pyrimidin-9-yl)ethyl)amino)benzoic acid]
0.231 µM	> 10 µM	CO[C@@H]1CCN(c2nc3c([C@@H](C)Nc4ccccc4C(=O)O)cc(C)cn3c(=O)c2C#N)CC1(F)F [Example 11-66, 2-(((R)-1-(3-cyano-2-((R)-3,3-difluoro-4-methoxypiperidin-1-yl)-7-methyl-4-oxo-4H-pyrido[1,2-a]pyrimidin-9-yl)ethyl)amino)benzoic acid]
4.03 µM	> 10 µM	Cc1cc(C(C)Nc2ccccc2C(=O)O)c2nc(-c3ccc(=O)n(C)c3)cc(=O)n2c1 (stereo not drawn) [Example 11-383, 2-((1-(7-methyl-2-(1-methyl-6-oxo-1,6-dihydropyridin-3-yl)-4-oxo-4H-pyrido[1,2-a]pyrimidin-9-yl)ethyl)amino)benzoic acid]
0.961 µM	> 10 µM	Cc1cc([C@@H](C)Nc2ccc(Cl)nc2C(=O)O)c2nc(N3CCN(c4ccc(C#N)cc4)C[C@@H]3C)c(C#N)c(=O)n2c1 [Example 11-129, 6-chloro-3-(((R)-1-(3-cyano-2-((S)-4-(4-cyanophenyl)-2-methylpiperazin-1-yl)-7-methyl-4-oxo-4H-pyrido[1,2-a]pyrimidin-9-yl)ethyl)amino)picolinic acid]

Compound	IC50 [1]	IC50 [2]
Cc1cc([C@@H](C)Nc2ccccc2C(=O)O)c2nc(N3C4CCC3CN(c3ccc(C#N)cc3)C4)c(C)c(=O)n2c1 [Example 11-183, 2-(((1R)-1-(2-(3-(4-cyanophenyl)-3,8-diazabicyclo[3.2.1]octan-8-yl)-3,7-dimethyl-4-oxo-4H-pyrido[1,2-a]pyrimidin-9-yl)ethyl)amino)benzoic acid]	0.197 µM	> 10 µM
